Measurements published in US20180344725A1, “QUINOLONE CHALCONE COMPOUNDS AND USES THEREOF” (priority 2015, published 2018).

Tests used:
[1] = tested on: MCF10AT1; assay: SRB cell viability, isogenic breast cell lines; assay type: cell-based; details: 0.39 μM, 72 hours
Description: (§1) FIG. 9 illustrates that CTR-17, CTR-20, CTR-21 and CTR-32 preferentially kill the fully malignant […] breast cancer cells over the pre-malignant MCF10AT1 and the non-malignant MCF-10A breast cells. Cells were treated with (A) CTR-17 at doses of 0.10, 0.39, 1.56 or 6.25 μM; (B) CTR-20 at doses of 0.10, 0.39, 1.56 or 6.25 μM; (C) CTR-21 at doses of 7.81, 15.63, 31.25, 62.5, 125 or 250 nM; or (D) CTR-32 at doses of 7.81, 15.63, 31.25, 62.5, 125 or 250 nM for 72 hours. Cell viability was determined using an SRB assay.
(§2) All of the cell lines used were purchased from ATCC and cultured in RPMI-1640 supplemented with 10% fetal bovine serum and antibiotics (100 units penicillin/100 μg/ml streptomycin), unless stated otherwise. 1845B5 and MCF-10A non-cancer breast cell lines were cultured in DME/F12 medium supplemented with 10% fetal bovine serum, antibiotics and growth factors. KB-3-1 is a human epidermal carcinoma cell line and KB-C-2 is its isogenic multidrug-resistant cell line with over-expressing ABCB1/P-gp. […] The human small cell lung carcinoma H69 cell line and its multidrug-resistant MRP1-overexpressing isogenic H69AR cell line were purchased from ATCC. The H69AR cell line was established in the presence of increasing concentrations of Adriamycin (doxorubicin). H69 cells grow as large multi-cell aggregates, making it difficult to accurately count cell numbers. Therefore, the cytotoxicity results obtained from H69AR cells were compared to SW1271, a small cell lung carcinoma cell line without a multidrug-resistant phenotype. The IL-6 dependent bortezomib-resistant ANBL6-BR cell line was further supplemented with 1 ng/ml of IL-6. The MCF10AT1 and MCF10CA1a cell lines are isogenic to the MCF10A cell line, and obtained from Dr. Valerie Weaver at the Center for Bioengineering and Tissue Regeneration, UCSF, CA, USA. MCF10AT1 is a premalignant cell line generated by transforming MCF10A with c-Ha-Ras; and MCF10CA1a was isolated by selecting malignant cells after MCF10AT1 cells were engrafted into mice (Liu & Lin 2004; Marella et al. 2009). The MCF10AT1 and MCF10CA1a cells were cultured in DMEM supplemented with 10% FBS (volume/volume). MDA-MB231TaxR cell line was generated in house by culturing MDA-MB231 cells in gradually increasing doses of paclitaxel over one-year period, and finally maintained at 100 nM paclitaxel. The drug-resistant cells were cultured in the absence of drug for at least one passage before carrying out experiments. All cells were maintained in a humidified incubator at 37° C. (5% CO2/95% air). Cell line authentication was performed using short tandem repeat (STR) profiling.
(§3) For (anti)proliferation assays, 4,000-5,000 cells/well of the 96-well clustered dish were incubated for 16 hours, as described previously (Hu et al., 2008; Skehan et al., 1990). After 16 hours, culture medium was replaced with fresh medium containing different dilutions of test compounds dissolved in DMSO. Some wells were treated with 100 μl of 10% trichloroacetic acid (TCA) as a negative control and sham (medium with dimethyl sulfoxide; DMSO) treated cells were used as a positive control. After 72 hours post-incubation, medium was removed and cells were fixed with 10% TCA at 4° C. for 1 hour. TCA was removed and cells were washed with cold tap water, and plate was air-dried, followed by addition of 50 μl of 0.4% SRB staining solution to each well. After 30 minutes incubation, SRB staining solution was removed. Cells were washed with 1% acetic acid solution, and then washed with tap water to remove unbound staining solution, followed by air-drying. 200 μl of 10 mM (pH10.5) trizma base buffer was added to each well to solubilise macromolecules. SRB stained macromolecules were determined at a 540 nm wavelength using an automated plate reader (Synergy H4 Hybrid Multi-Mode Microplate Reader, BioTek, Winooski, Vt.). Cell growth (inhibition) was calculated by the following formula: […]

[2] = biological target: T1, tubulin (colchicine-binding site) (Sus scrofa, UniProt P02550+P02554); assay: Colchicine competition assay; parameters: species or system porcine; details: colchicine 1.0-8.0 μM
T1 construct: purchased Cytoskeleton Inc. (Denver, Colo.) T240

[3] = tested on: MDA-MB-231; assay: Immunofluorescent staining: centrosomes and chromosome segregation; assay type: cell-based, human; details: for ACS (abnormal chromosome segregation) / Monopolar centrosome: MDA-MB-231, 3 μM
Description: Cells on coverslips placed on the bottom of 35 mm tissue culture plates or 6-well clustered dishes were treated for 12-24 hours with the CTR compounds to be tested. Subsequently, the cells were fixed with 100% methanol for 15 minutes and washed with 1×PBS three times. Cells were then “blocked” with 3% BSA or 1% (v/v) FBS plus 1×PBST (1×PBS buffer containing 0.1% (v/v) Triton X-100 or 0.2% Tween 20), and incubated overnight at 4° C. with primary antibodies, with gentle agitation. Unbound primary antibodies were washed off with PBST, and a secondary antibody was added for 1 hour in the dark. Secondary antibodies were conjugated to Alexa 488 or 568. DNA was counterstained with DRAQ5 or DAPI. Subsequently, coverslips were washed three times with 1×PBST for 10 minutes each, followed by mounting them onto slides with 90% glycerol in 1×PBS. Each slide was visualized with a Carl Zeiss 510 Meta laser scanning microscope or an Axioscope. Image analysis was done with an LSM image examiner equipped with the microscopes (Carl Zeiss, Toronto, ON, Canada).
The cancer-specific increase of mitotic cells in response to CTR-17 was correlated with the accumulation of cells with monopolar centrosomes and abnormal chromosome alignment/segregation (FIG. 11, Table 5). Cells were either sham-treated or treated with 3.0 μM CTR-17 for 12 hours or 24 hours, followed by analyses of cell cycle progression, centrosome abnormalities, and chromosome alignment/segregation. […] The mitotic index was determined by fluorescence microscopic analysis of at least 200 cells for each cell type, and data was expressed as percentage mean±S.E.M. of at least two independent experiments.
Asynchronously growing cells were treated with 1 μM CTR-20 for 24 hours, followed by examining cells arrested in mitosis. The percentage of mitotic cells was calculated based on the examination of at least 250-400 cells. Cells treated with 1 μM CTR-20 for 24 hours on coverslips were fixed with ice-cold methanol, immunostained with an α-tubulin antibody, and then counterstained DNA with DRAQ5 prior to observing by florescent microscopy (Table 6). […] Similarly, cells treated with 1 μM CTR-20 accumulated monopolar centrosomes and defective chromosomal alignment and segregation in a cancer-specific manner.

[4] = SRB cell viability, isogenic breast cell lines; assay type: cell-based; details: human, MCF10AT1 cells (pre-malignant breast cells), 31.25 nM
Description: as §1, §2, §3

SMILES: COc1ccccc1C(=O)/C=C/c1cc2ccccc2[nH]c1=O [CTR-17, (E)-3-(3-(2-Methoxyphenyl)-3-oxoprop-1-enyl)quinolin-2(1H)-one]
- Cell survival rate [1]: 60%
- effect on binding of colchicine to tubulin [2]: inhibited the binding of colchicine to tubulin
- ACS (abnormal chromosome segregation) ([3]; 12 h post-treatment): 60.0 ± 10.2% of total mitotic cells
- Monopolar centrosome ([3]; 12 h post-treatment): 40.0 ± 10.2% of total mitotic cells
- ACS (abnormal chromosome segregation) ([3]; 24 h post-treatment): 55.1 ± 5.7% of total mitotic cells
- Monopolar centrosome ([3]; 24 h post-treatment): 44.9 ± 5.7% of total mitotic cells

SMILES: COc1ccccc1C(=O)/C=C/c1cc2cccc(OC)c2[nH]c1=O [CTR-21, (E)-8-methoxy-3-(3-(2-methoxyphenyl)-3-oxoprop-1-enyl) quinolin-2(1H)-one]
- viability at 72 h, 0.03125 µM [4]: 24%

SMILES: COc1ccc2[nH]c(=O)c(/C=C/C(=O)c3ccccc3OC)cc2c1 [CTR-20, (E)-6-Methoxy-3-(3-(2-methoxyphenyl)-3-oxoprop-1-enyl) quinolin-2(1H)-one]
- Cell survival rate [1]: 20%
- effect on binding of colchicine to tubulin [2]: inhibited the binding of colchicine to tubulin
- ACA/S (%) (abnormal chromosome alignment and segregation) ([3]; MB231, 1 μM, 24 hours): 58.05 ± 6.21%
- Monopolar (%) ([3]; MB231, 1 μM, 24 hours): 35.73 ± 5.59%

SMILES: CCOc1ccccc1C(=O)/C=C/c1cc2ccccc2[nH]c1=O [CTR-32, (E)-3-(3-(2-ethoxyphenyl)-3-oxoprop-1-enyl)quinolin-2(1H)-one]
- viability at 72 h, 0.03125 µM [4]: 70%
